Reference: US20220169639A1 (priority 2018, published 2022)

Columns and labels:
[1] = tested on: HBV (HBsAg) in HBV-infected PHH; assay: Cryopreserved primary human hepatocytes (PHH) HBV infection assay, extracellular HBsAg (CLIA); format: cell-based; details: Hepatitis B virus, Hepatocyte, 216 h, read-out: HBsAg IC50
Procedure: This assay is used to confirm the anti-HBV effect of the compounds in HBV PHH infection assay. Cryopreserved PHH (BioreclamationIVT, Lot YJM) was thawed at 37° C. and gently transferred into pre-warmed InVitroGRO HT medium (BioreclamationIVT, Cat. S03317). The mixture was centrifuged at 70 relative centrifugal force (RCF) for 3 minutes at RT, and the supernatant was discarded. Pre-warmed InVitroGRO CP medium (BioreclamationIVT, Cat #S03316) was added to the cell pellet to gently re-suspend cells. The cells were seeded at the density of 5.8×10^4 cells per well to collagen I coated 96-well plate (Gibco, Cat. A1142803) with the InVitroGRO CP medium. All plates were incubated at 37° C. with 5% CO2 and 85% humidity.
At 20 hours after plating, the medium was changed to PHH culture medium (Dulbecco's Modified Eagle Medium (DMEM)/F12 (1:1) (Gibco, Cat. 11320-033), 10% fetal bovine serum (Gibco Cat. 10099141), 100 U/mL penicillin, 100 μg/mL streptomycin (Gibco, Cat. 151401-122), 5 ng/mL human epidermal growth factor (Invitrogen Cat. PHG0311L), 20 ng/mL dexamethasone (Sigma, Cat. D4902) and 250 ng/mL human recombinant insulin (Gibco, Cat. 12585-014)). And the cells were incubated at 37° C. with 5% CO2 and 85% humidity for 4 hours. The medium was then changed to pre-warmed PHH culture medium containing 4% polyethylene glycol (PEG) MW8000 (Sigma, Cat. P1458-50ML) and 1% DMSO (Sigma, Cat. D2650). 5.8×10^6 genomic equivalents of HBV were added into the medium.
At 24 hours post-infection, the cells were gently washed with PBS and refreshed with PHH culture medium supplemented with 1% DMSO, and 0.25 mg/mL Matrix gel (Corning, Cat. 356237) at 200 μL per well. All plates were immediately placed in at 37° C. CO2 incubator. 24 hours later, serial dilutions of compounds made with DMSO were further diluted with the same culture medium (PHH culture medium supplemented with 1% DMSO and 0.25 mg/mL Matrix gel as described above) before they were added to the cells to reach desired final compound concentrations and 1% DMSO concentration. The medium containing the compounds were refreshed every three days.
At 9 days post-compound treatment, extracellular HBsAg level were measured with Chemiluminescence Immuno Assay (CLIA) kit (Autobio, HBsAg Quantitative CLIA). Extracellular HBV DNA was extracted by MagNA Pure 96 system (Roche) and then determined
HBsAg IC50 and HBV DNA IC50 values were derived from the dose-response curve using 4 parameter logistic curve fit method. The compounds of formula (I) have HBsAg IC50<20 μM, particularly <1 μM; and HBV DNA IC50<50 μM. Results of Cryopreserved PHH assay are given in TableBIO2.

[2] = tested on: HBeAg (surrogate marker for cccDNA) in HepDES19 cells; assay: Engineered HepDES19 primary screen assay (HBeAg ELISA); format: cell-based, HBV; details: Hepatitis B virus, 120 h, HBeAg in culture supernatant, 5 days incubation, read-out: IC50 (HepDES19 primary screen assay, inhibition of extracellular HBeAg level)
Procedure, shortened: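 HepDES19 cells pre-induced by Tet withdrawal for 8 days, frozen, then seeded and dosed after 24 h with half-log compound dilutions (1% DMSO final). After 5 days at 37 °C, HBeAg measured by ELISA and viability by CCK-8; IC50 from 4-parameter logistic fit.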

CS(=O)(=O)NC(=O)C1CCCN1CCOc1cc(C(F)(F)F)ccc1-c1cc(=O)c2cccc(Cl)c2o1 (stereo not drawn) [Example 073, 1-[2-[2-(8-chloro-4-oxo-chromen-2-yl)-5-(trifluoromethyl)phenoxy]ethyl]-N-methylsulfonyl-pyrrolidine-2-carboxamide]
IC50 [1]: 7.47 µM
IC50 [2]: 0.14 µM

O=C1CCCN1CCOc1cc(Br)ccc1-c1cc(=O)c2cccc(Cl)c2o1 [Example 075, 1-[2-[5-bromo-2-(8-chloro-4-oxo-chromen-2-yl)phenoxy]ethyl]pyrrolidin-2-one]
IC50 [1]: 3.57 µM
IC50 [2]: 0.11 µM

CN(C1CCN(CCOc2cc(Br)ccc2-c2cc(=O)c3cccc(Cl)c3o2)C1)S(C)(=O)=O (stereo not drawn) [Example 076, N-[1-[2-[5-bromo-2-(8-chloro-4-oxo-chromen-2-yl)phenoxy]ethyl]pyrrolidin-3-yl]-N-methyl-methanesulfonamide]
IC50 [1]: 7.95 µM
IC50 [2]: 1.64 µM

O=c1cc(-c2ccc(C(F)(F)F)cc2OCCCN2C[C@@H](O)[C@@H](O)C2)oc2c(Cl)cccc12 [Example 077, 8-chloro-2-[2-[3-[(3R,4S)-3,4-dihydroxypyrrolidin-1-yl]propoxy]-4-(trifluoromethyl)phenyl]chromen-4-one]
IC50 [1]: 2.18 µM
IC50 [2]: 0.05 µM

NS(=O)(=O)CCNCCCOc1cc(C(F)(F)F)ccc1-c1cc(=O)c2cccc(Cl)c2o1 [Example 080, 2-[3-[2-(8-chloro-4-oxo-chromen-2-yl)-5-(trifluoromethyl)phenoxy]propylamino]ethanesulfonamide]
IC50 [1]: 4.02 µM
IC50 [2]: 3.14 µM

CC(=O)N1CCN(CCOc2cc(Br)ccc2-c2cc(=O)c3cccc(Cl)c3o2)CC1 [Example 082]
IC50 [1]: 7.56 µM
IC50 [2]: 0.24 µM

CS(=O)(=O)C1CCN(CCOc2cc(Br)ccc2-c2cc(=O)c3cccc(Cl)c3o2)C1 (stereo not drawn) [Example 084]
IC50 [1]: 3.48 µM
IC50 [2]: 0.59 µM

O=c1cc(-c2ccc(Br)cc2OCCN2CCC(c3nnn[nH]3)CC2)oc2c(Cl)cccc12 [Example 087]
IC50 [1]: 7.84 µM
IC50 [2]: 5.24 µM

CS(=O)(=O)C1CCN(CCCOc2cc(C(F)(F)F)ccc2-c2cc(=O)c3cccc(Cl)c3o2)C1 (stereo not drawn) [Example 088, 8-chloro-2-[2-[3-(3-methylsulfonylpyrrolidin-1-yl)propoxy]-4-(trifluoromethyl)phenyl]chromen-4-one]
IC50 [1]: 7.8 µM
IC50 [2]: 0.27 µM

O=c1cc(-c2ccc(Br)cc2OCCN2CCS(=O)(=O)CC2)oc2c(Cl)cccc12 [Example 089, 2-[4-bromo-2-[2-(1,1-dioxo-1,4-thiazinan-4-yl)ethoxy]phenyl]-8-chloro-chromen-4-one]
IC50 [1]: 5.81 µM
IC50 [2]: 1.94 µM

C[S+]([O-])C1CCN(CCOc2cc(C(F)(F)F)ccc2-c2cc(=O)c3cccc(Cl)c3o2)CC1 (stereo not drawn) [Example 093, 8-chloro-2-[2-[2-(4-methylsulfinyl-1-piperidyl)ethoxy]-4-(trifluoromethyl)phenyl]chromen-4-one]
IC50 [1]: 6.13 µM
IC50 [2]: 5.98 µM

CC(=O)NCCCOc1cc(C(F)(F)F)ccc1-c1cc(=O)c2cccc(Cl)c2o1 [Example 098]
IC50 [1]: 6.34 µM
IC50 [2]: 4.34 µM

CCOC(=O)C(=O)NCCOc1cc(C(F)(F)F)ccc1-c1cc(=O)c2cccc(Cl)c2o1 [Example 101, ethyl 2-[2-[2-(8-chloro-4-oxo-chromen-2-yl)-5-(trifluoromethyl)phenoxy]ethylamino]-2-oxo-acetate]
IC50 [1]: 1.41 µM
IC50 [2]: 1.08 µM

COc1cc(Cl)c2oc(-c3ccc(C(F)(F)F)cc3OCCCNC(=O)C(=O)O)cc(=O)c2c1 [Example 116]
IC50 [1]: 3.41 µM
IC50 [2]: 1.8 µM

O=C(O)C(=O)NCCCOc1cc(C(F)(F)F)ccc1-c1cc(=O)c2cccc(Cl)c2o1 [Example 117]
IC50 [1]: 1.9 µM
IC50 [2]: 2.16 µM

O=C(O)C(=O)NCCOc1cc(C(F)(F)F)ccc1-c1cc(=O)c2cccc(Cl)c2o1 [Example 119, 2-[2-[2-(8-chloro-4-oxo-chromen-2-yl)-5-(trifluoromethyl)phenoxy]ethylamino]-2-oxo-acetic acid]
IC50 [1]: 0.67 µM
IC50 [2]: 3.43 µM

O=C(O)CNCCCOc1cc(C(F)(F)F)ccc1-c1cc(=O)c2cccc(Cl)c2o1 [Example 125, 2-[3-[2-(8-chloro-4-oxo-chromen-2-yl)-5-(trifluoromethyl)phenoxy]propylamino]acetic acid]
IC50 [1]: 3.19 µM
IC50 [2]: 2.03 µM

O=C(O)C(=O)N1CC[C@H](Oc2cc(C(F)(F)F)ccc2-c2cc(=O)c3cccc(Cl)c3o2)C1 [Example 126, 2-oxo-2-[(3S)-3-[2-(8-chloro-4-oxo-chromen-2-yl)-5-(trifluoromethyl)phenoxy]pyrrolidin-1-yl]acetic acid]
IC50 [1]: 4.21 µM
IC50 [2]: 0.91 µM

O=C(O)C1CC(N2CCC(Oc3cc(Br)ccc3-c3cc(=O)c4cccc(Cl)c4o3)CC2)C1 (stereo not drawn) [Example 131]
IC50 [1]: 5.05 µM
IC50 [2]: 5.86 µM

O=C(O)C(=O)NC1CC(Oc2cc(C(F)(F)F)ccc2-c2cc(=O)c3cccc(Cl)c3o2)C1 (stereo not drawn) [Example 133]
IC50 [1]: 2.8 µM
IC50 [2]: 4.57 µM

NC(=O)C(=O)NCCOc1cc(C(F)(F)F)ccc1-c1cc(=O)c2cccc(Cl)c2o1 [Example 146, N′-[2-[2-(8-chloro-4-oxo-chromen-2-yl)-5-(trifluoromethyl)phenoxy]ethyl]oxamide]
IC50 [1]: 7.08 µM
IC50 [2]: 0.33 µM

NC(=O)NCCCOc1cc(C(F)(F)F)ccc1-c1cc(=O)c2cccc(Cl)c2o1 [Example 157, 3-[2-(8-chloro-4-oxo-chromen-2-yl)-5-(trifluoromethyl)phenoxy]propylurea]
IC50 [1]: 3.4 µM
IC50 [2]: 4.15 µM

NS(=O)(=O)NCCCOc1cc(C(F)(F)F)ccc1-c1cc(=O)c2cccc(Cl)c2o1 [Example 160, 8-chloro-4-oxo-2-[2-[3-(sulfamoylamino)propoxy]-4-(trifluoromethyl)phenyl]chromene]
IC50 [1]: 10 µM
IC50 [2]: 2.43 µM

O=C(O)[C@H]1CCN(CC(O)COc2cc(Br)ccc2-c2cc(=O)c3cccc(Cl)c3o2)C1 (stereo partly drawn) [Example 164, (3S)-1-[3-[5-bromo-2-(8-chloro-4-oxo-chromen-2-yl)phenoxy]-2-hydroxy-propyl]pyrrolidine-3-carboxylic acid]
IC50 [1]: 9.66 µM
IC50 [2]: 2.96 µM

O=C(O)[C@@H]1CCN(CC(O)COc2cc(Br)ccc2-c2cc(=O)c3cccc(Cl)c3o2)C1 (stereo partly drawn) [Example 165, (3R)-1-[3-[5-bromo-2-(8-chloro-4-oxo-chromen-2-yl)phenoxy]-2-hydroxy-propyl]pyrrolidine-3-carboxylic acid]
IC50 [1]: 9.98 µM
IC50 [2]: 3.19 µM

O=C(O)C(=O)NCC(O)COc1cc(C(F)(F)F)ccc1-c1cc(=O)c2cccc(Cl)c2o1 (stereo not drawn) [Example 166, 2-[[3-[2-(8-chloro-4-oxo-chromen-2-yl)-5-(trifluoromethyl)phenoxy]-2-hydroxy-propyl]amino]-2-oxo-acetic acid]
IC50 [1]: 3.03 µM
IC50 [2]: 1.57 µM

NC(=O)CNCCOc1cc(C(F)(F)F)ccc1-c1cc(=O)c2cccc(Cl)c2o1 [Example 167, 2-[2-[2-(8-chloro-4-oxo-chromen-2-yl)-5-(trifluoromethyl)phenoxy]ethylamino]acetamide]
IC50 [1]: 7.94 µM
IC50 [2]: 3.3 µM
